According to patent US9493506B2 (Enanta Pharmaceuticals, Inc., priority 2010, dated 2016):

Columns and labels:
[1] = dog PK experiment; conditions: in vivo; for bioavailability: dog PK experiment, 3 mg/kg, read-out: F value (bioavailability); for AUC: dog, dosed at 3 mg/kg
Excerpt: Those of ordinary skill in the art are aware of the biological assays utililized to test the compounds of the invention. Regarding bioavailability data (F values), a more thorough explanation can be found in Rowland, M and Tozer, T Clinical Pharmacokinetics: Concepts and Applications Lippincott, Williams & Wilkins 3rd ed. 1995, (specifically covered on page 43).

[2] = system: HCV replicon with a R155K mutation in a 1a-H77 background; assay: transient replicon assay, R155K mutation in 1a-H77 background; assay type: cell-based, hepatitis C virus (genotype 1a-H77); conditions: Hepatitis C virus, read-out: EC50 in a transient replicon assay with a R155K mutation in a 1a-H77 background
In short: (§1)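 Transient transfection of mutant replicon RNA (1a-H77 with NS2–NS5B, or 1b-N with NS3–NS5B plus E1202G/S2204I) by electroporation into IFN-cured Huh7 cells, plated at 7.5×10^3 cells per well in DMEM with 5% FBS. Serial compound dilutions added 4 h post-transfection (0.5% DMSO final).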

[3] = system: HCV replicon with a D168E mutation in a 1a-H77 background; assay: transient replicon assay, D168E mutation in 1a-H77 background; assay type: cell-based, hepatitis C virus (genotype 1a-H77); conditions: Hepatitis C virus, read-out: EC50 in a transient replicon assay with a D168E mutation in a 1a-H77 background
In short: as §1

[4] = system: HCV replicon with a D168V mutation in a 1a-H77 background; assay: transient replicon assay, D168V mutation in 1a-H77 background; assay type: cell-based, hepatitis C virus (genotype 1a-H77); conditions: Hepatitis C virus, read-out: EC50 in a transient replicon assay with a D168V mutation in a 1a-H77 background
In short: as §1

SMILES	bioavailability [1]	AUC [1]	EC50 [2]	EC50 [3]	EC50 [4]
Cc1cc(C(=O)N[C@H]2CCCCC/C=C\[C@@H]3C[C@@]3(C(=O)NS(=O)(=O)C3CC3)NC(=O)[C@@H]3C[C@@H](Oc4nc5ccccc5nc4C(F)(F)F)CN3C2=O)no1 [Example 10, N-((2R,6S,13aS,14aR,16aS,Z)-14a-(cyclopropylsulfonylcarbamoyl)-5,16-dioxo-2-(3-(trifluoromethyl)quinoxalin-2-yloxy)-1,2,3,5,6,7,8,9,10,11,13a,14,14a,15,16,16a-hexadecahydrocyclopropa[e]pyrrolo[1,2-a][1,4]diazacyclopentadecin-6-yl)-5-methylisoxazole-3-carboxamide]	> 100%	27000 ng·h/mL	< 1 nM	< 3 nM	25 to 50 nM
Cc1onc(C(=O)N[C@H]2CCCCC/C=C\[C@@H]3C[C@@]3(C(=O)NS(=O)(=O)C3CC3)NC(=O)[C@@H]3C[C@@H](Oc4nc5ccccc5nc4C(F)(F)F)CN3C2=O)c1C [Example 16, N-((2R,6S,13aS,14aR,16aS,Z)-14a-(cyclopropylsulfonylcarbamoyl)-5,16-dioxo-2-(3-(trifluoromethyl)quinoxalin-2-yloxy)-1,2,3,5,6,7,8,9,10,11,13a,14,14a,15,16,16-hexadecahydrocyclopropa[e]pyrrolo[1,2-a][1,4]diazacyclopentadecin-6-yl)-4,5-dimethylisoxazole-3-carboxamide]	66%	2100 ng·h/mL	< 1 nM	< 3 nM	< 25 nM
Cc1cc(C(=O)N[C@H]2CCCCC/C=C\[C@@H]3C[C@@]3(C(=O)NS(=O)(=O)C3CC3)NC(=O)[C@@H]3C[C@@H](Oc4nc5cc(F)ccc5nc4C)CN3C2=O)no1 [Example 22, N-((2R,6S,13aS,14aR,16aS,Z)-14a-(cyclopropylsulfonylcarbamoyl)-2-(7-fluoro-3-methylquinoxalin-2-yloxy)-5,16-dioxo-1,2,3,5,6,7,8,9,10,11,13a,14,14a,15,16,16a-hexadecahydrocyclopropa[e]pyrrolo[1,2-a][1,4]diazacyclopentadecin-6-yl)-5-methylisoxazole-3-carboxamide]	> 100%	54000 ng·h/mL	1 to 10 nM	3 to 20 nM	25 to 50 nM
Cc1cc(C(=O)N[C@H]2CCCCC/C=C\[C@@H]3C[C@@]3(C(=O)NS(=O)(=O)C3(C)CC3)NC(=O)[C@@H]3C[C@@H](Oc4nc5cc(F)ccc5nc4C)CN3C2=O)no1 [Example 23, N-((2R,6S,13aS,14aR,16aS,Z)-2-(7-fluoro-3-methylquinoxalin-2-yloxy)-14a-(1-methylcyclopropylsulfonylcarbamoyl)-5,16-dioxo-1,2,3,5,6,7,8,9,10,11,13a,14,14a,15,16,16a-hexadecahydrocyclopropa[e]pyrrolo[1,2-a][1,4]diazacyclopentadecin-6-yl)-5-methylisoxazole-3-carboxamide]	86%	201000 ng·h/mL	1 to 10 nM	3 to 20 nM	< 25 nM
Cc1cc(C(=O)N[C@H]2CCCCC/C=C\[C@@H]3C[C@@]3(C(=O)NS(=O)(=O)C3CC3)NC(=O)[C@@H]3C[C@@H](Oc4nc5c(F)cccc5nc4C)CN3C2=O)no1 [Example 56, N-((2R,6S,13aS,14aR,16aS,Z)-14a-(cyclopropylsulfonylcarbamoyl)-2-(8-fluoro-3-methylquinoxalin-2-yloxy)-5,16-dioxo-1,2,3,5,6,7,8,9,10,11,13a,14,14a,15,16,16a-hexadecahydrocyclopropa[e]pyrrolo[1,2-a][1,4]diazacyclopentadecin-6-yl)-5-methylisoxazole-3-carboxamide]	> 100%	10800 ng·h/mL	1 to 10 nM	20 to 50 nM	50 to 250 nM
Cc1cc(C(=O)N[C@H]2CCCCC/C=C\[C@@H]3C[C@@]3(C(=O)NS(=O)(=O)C3(C)CC3)NC(=O)[C@@H]3C[C@@H](Oc4nc5cc(F)cc(Br)c5nc4C)CN3C2=O)no1 [Example 101, N-((2R,6S,13aS,14aR,16aS,Z)-2-(5-bromo-7-fluoro-3-methylquinoxalin-2-yloxy)-14a-(1-methylcyclopropylsulfonylcarbamoyl)-5,16-dioxo-1,2,3,5,6,7,8,9,10,11,13a,14,14a,15,16,16a-hexadecahydrocyclopropa[e]pyrrolo[1,2-a][1,4]diazacyclopentadecin-6-yl)-5-methylisoxazole-3-carboxamide]	> 100%	84000 ng·h/mL	< 1 nM	3 to 20 nM	< 25 nM
Cc1cc(C(=O)N[C@H]2CCCCC/C=C\[C@@H]3C[C@@]3(C(=O)NS(=O)(=O)C3CC3)NC(=O)[C@@H]3C[C@@H](Oc4nc5cc(F)ccc5nc4C(F)(F)F)CN3C2=O)no1 [Example 107, N-((2R,6S,13aS,14aR,16aS,Z)-14a-(cyclopropylsulfonylcarbamoyl)-2-(7-fluoro-3-(trifluoromethyl)quinoxalin-2-yloxy)-5,16-dioxo-1,2,3,5,6,7,8,9,10,11,13a,14,14a,15,16,16a-hexadecahydrocyclopropa[e]pyrrolo[1,2-a][1,4]diazacyclopentadecin-6-yl)-5-methylisoxazole-3-carboxamide]	74%	54000 ng·h/mL	< 1 nM	< 3 nM	< 25 nM
Cc1cc(C(=O)N[C@H]2CCCCC/C=C\[C@@H]3C[C@@]3(C(=O)NS(=O)(=O)C3(C)CC3)NC(=O)[C@@H]3C[C@@H](Oc4nc5cc(F)ccc5nc4C(F)(F)F)CN3C2=O)no1 [Example 111, N-((2R,6S,13aS,14aR,16aS,Z)-2-(7-fluoro-3-(trifluoromethyl)quinoxalin-2-yloxy)-14a-(1-methylcyclopropylsulfonylcarbamoyl)-5,16-dioxo-1,2,3,5,6,7,8,9,10,11,13a,14,14a,15,16,16a-hexadecahydrocyclopropa[e]pyrrolo[1,2-a][1,4]diazacyclopentadecin-6-yl)-5-methylisoxazole-3-carboxamide]	88%	141000 ng·h/mL	< 1 nM	< 3 nM	< 25 nM
Cc1cc(C(=O)N[C@H]2CCCCC/C=C\[C@@H]3C[C@@]3(C(=O)NS(=O)(=O)C3CC3)NC(=O)[C@@H]3C[C@@H](Oc4nc5cc(F)ccc5nc4C(C)(F)F)CN3C2=O)no1 [Example 117, N-((2R,6S,13aS,14aR,16aS,Z)-14a-(cyclopropylsulfonylcarbamoyl)-2-(3-(1,1-difluoroethyl)-7-fluoroquinoxalin-2-yloxy)-5,16-dioxo-1,2,3,5,6,7,8,9,10,11,13a,14,14a,15,16,16a-hexadecahydrocyclopropa[e]pyrrolo[1,2-a][1,4]diazacyclopentadecin-6-yl)-5-methylisoxazole-3-carboxamide]	63%	63000 ng·h/mL	< 1 nM	< 3 nM	< 25 nM
Cc1cc(C(=O)N[C@H]2CCCCC/C=C\[C@@H]3C[C@@]3(C(=O)NS(=O)(=O)C3(C)CC3)NC(=O)[C@@H]3C[C@@H](Oc4nc5cc(F)ccc5nc4C(C)(F)F)CN3C2=O)no1 [Example 119, N-((2R,6S,13aS,14aR,16aS,Z)-2-(3-(1,1-difluoroethyl)-7-fluoroquinoxalin-2-yloxy)-14a-(1-methylcyclopropylsulfonylcarbamoyl)-5,16-dioxo-1,2,3,5,6,7,8,9,10,11,13a,14,14a,15,16,16a-hexadecahydrocyclopropa[e]pyrrolo[1,2-a][1,4]diazacyclopentadecin-6-yl)-5-methylisoxazole-3-carboxamide]	64%	30000 ng·h/mL	< 1 nM	< 3 nM	< 25 nM
